The supplement of paper PMC10307832

Legend:
Assay in all cases: relative viability (nuclei count vs DMSO), 5 days (fraction); higher = more cells survive
Vandetanib + Bortezomib = compound: COc1cc2/c(=N/c3ccc(Br)cc3F)nc[nH]c2cc1OCC1CCN(C)CC1 [Vandetanib] + CC(C)C[C@H](NC(=O)[C@H](Cc1ccccc1)NC(=O)c1cnccn1)B(O)O [Bortezomib] (partner 0.002 µM)
Procedure, shortened: (§1)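 Each reported value is a median over duplicate plates. It expresses relative viability: treated-well nuclei count divided by vehicle-well nuclei count. Lung cancer cell lines in 1536-well plates were dosed by pin tool a day after seeding, alone with one drug or with a fixed anchor-drug dose plus five library-drug doses (not always all listed) in √10 steps, and nuclei were counted after 5 days.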

NVP-TAE684 + Bortezomib = compound: COc1cc(N2CCC(N3CCN(C)CC3)CC2)ccc1Nc1ncc(Cl)c(Nc2ccccc2S(=O)(=O)C(C)C)n1 [NVP-TAE684] + CC(C)C[C@H](NC(=O)[C@H](Cc1ccccc1)NC(=O)c1cnccn1)B(O)O [Bortezomib] (partner 0.002 µM)
Procedure, shortened: as §1

[1] = compound: C1=CC=C2C(=C1)N=C(S2)C(C#N)C3=NC(=NC=C3)NCCC4=CN=CC=C4 + CC1(C)CCC(c2ccc(Cl)cc2)=C(CN2CCN(c3ccc(C(=O)NS(=O)(=O)c4ccc(N[C@H](CCN5CCOCC5)CSc5ccccc5)c(S(=O)(=O)C(F)(F)F)c4)cc3)CC2)C1 [Navitoclax] (partner 0.5 µM)
Procedure, shortened: as §1

Vandetanib + Phenformin = compound: COc1cc2/c(=N/c3ccc(Br)cc3F)nc[nH]c2cc1OCC1CCN(C)CC1 [Vandetanib] + N=C(N)NC(=N)NCCc1ccccc1 [Phenformin] (partner 250 µM)
Procedure, shortened: as §1

Cell Line	relative viability (Vandetanib + Bortezomib; first compound 0.02 µM)	relative viability (Vandetanib + Bortezomib; first compound 0.06325 µM)	relative viability (Vandetanib + Bortezomib; first compound 0.2 µM)	relative viability (Vandetanib + Bortezomib; first compound 0.6325 µM)	relative viability (Vandetanib + Bortezomib; first compound 2 µM)	relative viability (NVP-TAE684 + Bortezomib; first compound 0.2 µM)	relative viability (NVP-TAE684 + Bortezomib; first compound 0.6325 µM)	relative viability (NVP-TAE684 + Bortezomib; first compound 2 µM)	relative viability ([1]; first compound 0.01581 µM)	relative viability ([1]; first compound 0.05 µM)	relative viability ([1]; first compound 0.1581 µM)	relative viability ([1]; first compound 0.5 µM)	relative viability (Vandetanib + Phenformin; first compound 0.02 µM)	relative viability (Vandetanib + Phenformin; first compound 0.06325 µM)	relative viability (Vandetanib + Phenformin; first compound 0.2 µM)	relative viability (Vandetanib + Phenformin; first compound 0.6325 µM)	relative viability (Vandetanib + Phenformin; first compound 2 µM)	relative viability ([1]; first compound 0.005 µM)
NCI-H23	1	0.944	1.06	0.785	0.884	0.867	0.993	0.54	0.958	0.728	0.959	0.958	0.763	0.733	0.8	0.777	0.742	
NCI-H322M	1.18	1.13	1.18	1.13	1.12	1.23	1.16	0.924	1.24	1.23	1.49	1.18	0.7	0.731	0.852	0.622	0.493	1.24
NCI-H441	0.449	0.459	0.373	0.547	0.386	0.516	0.358	0.204	0.625	0.513	0.575	0.48	0.849	0.783	0.898	0.916	0.717	
NCI-H460	1.02	0.992	1.1	1.09	0.98	1.77	1.2	0.593	1.38	1.13	1.23	0.656	0.498	0.48	0.544	0.49	0.48	
NCI-H520	0.608	0.623	0.527	0.45	0.569		0.672	0.321	1.25	1.03	1.26	1.19	0.563	0.58	0.481	0.518	0.548	0.929
NCI-H596	0.998	1	0.965	0.717	0.958	1.3	0.919		1.08	0.893	1.18	0.953	0.917	0.623	0.698	0.747	0.698	0.913
NCI-H647	0.962	0.947	1.05	0.817	0.804	1.38	1.11	0.77	1.22	0.955	1.34	0.979	0.524	0.51	0.412	0.513	0.501	
NCI-H727	0.791	0.657	0.783	0.856	0.872	0.684	0.887	0.506	0.334	0.347	0.414	0.397	0.565	0.468	0.712	0.283	0.448	0.465
